Assay results from patent US20110124678A1, “TREATMENT WITH ALPHA 7-SELECTIVE LIGANDS” (Targacept, Inc., priority 2007, published 2011).
Entries after “also recorded” stand apart in the source; their conditions may differ.

Experiments:
[1] = target: T1, human α7 nicotinic receptor (Homo sapiens, UniProt P36544); test: electrophysiology functional assay in Xenopus laevis oocytes; type: cell-based; conditions: Xenopus laevis oocytes transiently expressing human α7 nicotinic receptor
T1 construct: expressed in transfected cells; host or cells: Xenopus laevis oocytes

db/db mice [2] = test: metabolic phenotyping of obese db/db mice (PTP1B wild type or knockout) treated with α7 agonist; type: in vivo; conditions: for Glucose Tolerance Test (GTT): fat db/db PTP-1B WT mice; for plasma TNFα / plasma blood glucose (BG) / plasma glycosylated hemoglobin (Hb1ac) / plasma triglycerides (TG) / body mass / food consumption: fat db/db mice; for plasma triglycerides (TG): PTP-1B wild type; for body mass / food consumption: increase vs lean; for weight gain: obese db− mice, seven weeks of treatment; for food intake decrease induced by the α7 agonist / treatment-induced decrease in plasma glucose: antagonist or inhibitor given with α7 agonist; for body weight gain / weight loss induced by the α7 agonist: antagonist or inhibitor given with α7 agonist (MLA 3 mg/kg gavage; AG-490 1 mg/kg IP)
Text: Body Weight Gain and Food Intake. Several protein tyrosine phosphatases (PTPases) such as PTP1B, LAR, SHP-2 and PTEN have been implicated in the development of insulin resistance.
α7 agonist on Obesity. Animal Models: Parental strains of mice used in these studies were the leptin receptor deficient db/db mice on a C57BL6 background obtained from Jackson Laboratories and PTP1B-null mice on a mixed C57BL6/Balb C background from Dr. Michel Tremblay at the Cancer Institute at McGill University in Montreal, Canada. Because obese db/db mice are infertile, mice were generated as dual heterozygotes, heterozygous for both the mutant leptin receptor and the deleted PTP1B. Dual heterozygotes were interbred, producing 1:4 obese mice and 1:4 PTP-1B null mice. In this breeding configuration 1:16 were dual KO mice. In the fourth generation, mice heterozygous for both genes were bred to PTP-1B null mice heterozygous for the mutant db allele. In this breeding configuration 1:4 mice were obese and 1:8 were dual KO mice. For reasons of parsimony, heterozygotes were preferred to wild-types over controls. Dual heterozygous littermates were used as lean controls and littermates heterozygous for db were used as lean PTP1B KO controls.
Mouse genotyping: At 3 weeks of age, DNA was obtained by tail clip. The genomic DNA from tail clip was used to screen for the presence of the mutant leptin receptor and deletion cassette of PTP-1B using the Polymerase Chain Reaction. Specific genotypes were determining by resolving PCR products with agarose gel electrophoresis. Deletion of PTP-1B was verified by Western analysis using an anti-PTP-1B antibody from Upstate Biotechnology.
In selected cohorts, the α7 antagonist MLA was also given via gavage, concurrently, at 3 mg/kg daily. The JAK2 kinase inhibitor (AG-490) was administered intraperitoneally (IP) at 1 mg/kg daily. Fasting glucose was measured once a week after food withdrawal, with a Precision XL glucometer using tail vein bleeding. HbA1c levels were also measured from these samples with the A1C kit from Metrika, Inc. To assess glucose tolerance, the mice were anesthetized with 2% isoflurane and the left carotid artery and jugular vein cannulated after an overnight fast. A 10 mg bolus of glucose was injected intravenously (iv) via the jugular vein and blood glucose measured every 5 minutes for 40 minutes in a drop of blood from the carotid line. For measurements of blood plasma analytes, a separate group of fasted mice were anesthetized by isoflurane in a rapid induction chamber and swiftly decapitated. Blood was collected in heparin and rapidly centrifuged at 4° C. to remove cells and to obtain plasma, and the samples were frozen for later analyses. Plasma TNF-α concentrations were determined using ELISA assay kits from eBioscience and plasma triglyceride levels were determined using the L-Type TG H test (Wako Diagnostics), an in vitro assay for the quantitative determination of triglycerides in serum or plasma. All data are expressed as mean and SEM. Differences among all groups were compared by One Way ANOVA.

db/db mice [3] = test: simvastatin and Compound A in db/db mice, metabolic phenotyping; type: in vivo; conditions: fat db/db mice, statin study
Description: Animal Models and Metabolic Phenotyping: […] Growth rates of mice were generated by measuring body weight twice weekly for 10 weeks. Daily food intake was measured in mice metabolic cages obtained from Fisher. To assess glucose tolerance, mice were anesthetized with 2% isoflurane and the left carotid artery and jugular vein cannulated after an overnite fast. Fasting blood glucose was assessed as the initial two measurements in the anesthetized mice. A second measurement was used to determine HbA1c levels using the […] kit from Metrika Inc. A 10 mg bolus of glucose was injected into each mouse and blood glucose measure by a drop of blood from the carotid line every 5 minutes for 40 minutes. Glucose was measured with a Precision XL glucometer. At the end of the experiment mice were euthanized by isoflurane overdose. In a second group of mice, fasted mice were anesthetized by isofluorance in a rapid induction chamber and swiftly decapitated. Trunk blood was collected in heparin and rapidly centrifuged to remove blood cells and obtain plasma. Samples were then collected for analyses. Plasma cholesterol, free fatty acids and triglycerides were determined using colorimetric assays from Wako Chemical while plasma TNFα concentration was determined using ELISA assay kits from eBioscience.

[4] = difference between genotypes under treatment
[5] = obese mice, antagonist given with α7 agonist

T1 sequence (P36544 23-502): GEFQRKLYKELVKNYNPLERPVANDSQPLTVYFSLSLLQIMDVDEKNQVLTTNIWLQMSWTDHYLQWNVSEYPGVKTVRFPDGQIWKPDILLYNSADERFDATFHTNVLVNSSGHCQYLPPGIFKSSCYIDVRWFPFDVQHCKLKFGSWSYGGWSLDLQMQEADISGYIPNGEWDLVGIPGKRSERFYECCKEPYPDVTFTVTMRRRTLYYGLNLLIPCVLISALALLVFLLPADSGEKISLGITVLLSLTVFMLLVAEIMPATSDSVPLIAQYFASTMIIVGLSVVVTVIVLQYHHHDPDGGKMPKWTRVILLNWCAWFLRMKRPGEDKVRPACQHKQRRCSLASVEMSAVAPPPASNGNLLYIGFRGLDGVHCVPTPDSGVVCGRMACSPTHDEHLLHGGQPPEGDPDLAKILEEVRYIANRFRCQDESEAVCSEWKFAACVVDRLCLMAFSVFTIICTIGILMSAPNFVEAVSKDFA

Row | Compound | Glucose Tolerance Test (GTT) (db/db mice [2]) | plasma TNFα (db/db mice [2]) | plasma blood glucose (BG) (db/db mice [2]) | plasma glycosylated hemoglobin (Hb1ac) (db/db mice [2]) | plasma triglycerides (TG) (db/db mice [2]) | body mass (db/db mice [2]) | food consumption (db/db mice [2]) | weight gain (db/db mice [2]) | food intake decrease induced by the α7 agonist (db/db mice [2]; obese mice) | treatment-induced decrease in plasma glucose (db/db mice [2]; obese mice) | body weight gain / weight loss induced by the α7 agonist (db/db mice [2]; obese mice) | also measured
1 | O=C(N[C@@H]1C2CCN(CC2)[C@H]1Cc1cccnc1)c1cc2ccccc2o1 (single isomer, unassigned) [Compound C] | normalize insulin resistance glucose tolerance test; also recorded: significant increase in deposition | reduce pro-inflammatory cytokines; also recorded: significantly inhibited | normalize glucose levels; also recorded: significantly inhibited | decrease glycated hemoglobin; also recorded: significantly inhibited | reduce triglycerides; also recorded: significantly inhibited | significantly inhibited | significantly inhibited | reduce weight gain |  |  |  | Emax [1]: > 50%; body mass, fat wild type vs fat PTP-1B KO (db/db mice [2]; [4]): no significant difference; food consumption, fat wild type vs fat PTP-1B KO (db/db mice [2]; [4]): no significant difference; plasma blood glucose, fat wild type vs fat PTP-1B KO (db/db mice [2]; [4]): no significant difference
2 | O=C(N[C@@H]1C2CCN(CC2)[C@H]1Cc1cccnc1)c1ccc(-c2ccccn2)s1 [Compound B, (2S,3R)—N-(2-((3-pyridinyl)methyl)-1-azabicyclo[2.2.2]oct-3-yl)-5-(2-pyridinyl)thiophene-2-carboxamide] | normalize insulin resistance glucose tolerance test | reduce pro-inflammatory cytokines; also recorded: significantly inhibited | normalize glucose levels; also recorded: significantly inhibited | decrease glycated hemoglobin; also recorded: significantly inhibited | reduce triglycerides; also recorded: significantly inhibited | significantly inhibited | significantly inhibited | reduce weight gain |  |  |  | 
3 | CCN1C[C@]2(COC(=O)c3ccccc3N3C(=O)C[C@H](C)C3=O)CC[C@H](OC)[C@@]34[C@@H]5C[C@H]6[C@H](OC)[C@@H]5[C@](O)(C[C@@H]6OC)[C@](O)([C@@H](OC)[C@H]23)[C@@H]14 [MLA, reference compound] |  |  |  |  |  |  |  |  | no significant differences | no significant decrease in plasma glucose | no significant differences | decrease of plasma TNF-α by the α7 agonist (db/db mice [2]; [5]): blocked; increased insulin sensitivity induced by the α7 agonist (db/db mice [2]; [5]): abrogated; also recorded: suppressed; normalization of triglycerides by the α7 agonist (db/db mice [2]; [5]): blocked
4 | Cc1ccc(C(=O)N[C@@H]2C3CCN(CC3)[C@H]2Cc2cccnc2)s1 [Compound A, 5-methyl-N-[(2S,3R)-2-(pyridin-3-ylmethyl)-1-azabicyclo[2.2.2]oct-3-yl]thiophene-2-carboxamide] | normalize insulin resistance glucose tolerance test | reduce pro-inflammatory cytokines | normalize glucose levels | decrease glycated hemoglobin | reduce triglycerides |  |  | reduce weight gain |  |  |  | % glycated hemoglobin (% Hb1ac) (db/db mice [3]): significantly inhibited; body mass (db/db mice [3]): significantly inhibited; food consumption (db/db mice [3]): significantly inhibited; plasma TNFα (db/db mice [3]): significantly inhibited; plasma blood glucose (BG) (db/db mice [3]): significantly inhibited; plasma cholesterol (Chol) (db/db mice [3]): significantly inhibited; plasma triglycerides (TG) (db/db mice [3]): significantly inhibited
5 | N#C/C(=C/c1ccc(O)c(O)c1)C(=O)NCc1ccccc1 [AG-490, reference compound] |  |  |  |  |  |  |  |  | significantly inhibited; also recorded: partially inhibits effects of Compound A | significantly prevented | significantly inhibited | 
